In article PMC12755868, “Recombinant Production, SpeciesSpecific Activity at the TRPA1 Channel, and Significance of the N-Terminal Residue of ProTx-I Toxin from Thrixopelma Pruriens Tarantula Venom” (Acta Naturae, 2025):
“Also recorded” adds a separate entry of the source. Positions of bridges follow the written chain, without caps; N, C: chain ends. Residues, ends and D or L forms follow the SMILES beside them.

Key:
human TRPA1 [1] = target: T1, human TRPA1 (Homo sapiens, UniProt O75762); assay: Inhibition of AITC-induced currents through human TRPA1 in X. laevis oocytes (electrophysiology); type: cell-based; details: for residual current (inhibited currents to): human TRPA1, toxin 10 μM, 100 μM AITC, normalized to response without ProTx-I (100%), n = 3–6 oocytes
T1 construct: expressed in transfected cells; host or cells: Xenopus laevis oocytes (mRNA injection)
Description: (§1) Currents through human and rat TRPA1 [21] were recorded in X. laevis oocytes expressing these channels. Oocyte isolation, mRNA injection, and experimental recordings have been described previously. All solutions were prepared on the day of the experiment using calcium-free ND-96 containing 96 mM NaCl, 2 mM KCl, 1 mM MgCl2 , and 10 mM HEPES at pH 7.4. Currents were stimulated by the application 100 μM AITC (Sigma-Aldrich). The solution was manually added to the perfusion chamber, and the currents were recorded using voltage ramps as reported in [22]. For each oocyte, we sequentially recorded three responses to AITC application, as well as the subsequent leakage current in the presence of a specific TRPA1 inhibitor: HC030031 (Sigma-Aldrich). The first response amplitude was used to normalize the data obtained on different oocytes. To induce the second response, AITC was applied together with ProTx-I or HC030031. The amplitude of this response was measured, normalized, averaged across different oocytes, and used to plot dose-response curves. Dose-response curves were approximated by the Hill equation: […]
where nH is the Hill coefficient.
Statistical data processing was performed using GraphPad Prism 9.0. To compare current amplitudes at specific toxin concentrations, either a two-tailed Student’s t-test or one-way ANOVA and Dunnett’s multiple comparison test was used. Dose-response curve parameters were compared using the F-test.
Fig. 4 Effect of ProTx-I variants on AITC-induced outward currents through TRPA1 in X. laevis oocytes. (A) Average normalized current traces for the human TRPA1 channel in the absence and presence of the selective antagonist HC030031 or ProTx-I. Data are presented as mean ± SEM (lines and shaded areas, respectively, n = 3–6 oocytes). Compound application periods are shown by solid black bars above the traces. […] (C) Dose-response curves for recombinant rProTx-I at human (hTRPA1) and rat (rTRPA1) ion channels. […] Data in B and C (mean ± SEM, n = 3–6 oocytes) are normalized to the response recorded without ProTx-I (100%)

rat TRPA1 = target: T2, rat TRPA1 (Rattus norvegicus, UniProt Q6RI86); assay: Inhibition of AITC-induced currents through rat TRPA1 in X. laevis oocytes (electrophysiology); type: cell-based
T2 construct: expressed in transfected cells; host or cells: Xenopus laevis oocytes (mRNA injection)
Description: as §1
where nH is the Hill coefficient. […]
Fig. 4 Effect of ProTx-I variants on AITC-induced outward currents through TRPA1 in X. laevis oocytes. […] Data in B and C (mean ± SEM, n = 3–6 oocytes) are normalized to the response recorded without ProTx-I (100%)

[2] = tested on: voltage-gated sodium (NaV), potassium, and calcium channels; details: cited from earlier work
Source text: Due to its action at the NaV1.7, NaV1.8, and TRPA1 channels involved in pain perception and propagation, ProTx-I may be used as a model for the development of next-generation analgesics. ProTx-I consists of 35 amino acid residues, with three disulfide bonds forming an inhibitor cystine knot (ICK) motif, which challenges its heterologous production. An efficient Pro ... || Spider knottins include membrane-active toxins that affect the activation or inactivation of sodium (NaV), potassium, and calcium voltage-gated channels (so-called gating modifier toxins). The ProTx-I toxin (Protoxin-I or β/ω-theraphotoxin-Tp1a, 35 aa) is a membrane-active knottin of the Peruvian green velvet tarantula Thrixopelma pruriens. […] Among the ProTx-I targets, NaV1.7, NaV1.8, and TRPA1 channels are promising therapeutic targets for the treatment of pain and neu ...

human TRPA1 [3] = target: T1, human TRPA1; details: cited from earlier work
Source text: In the present study, we compared the functional activity of Met-ProTx-I and ProTx-I, with the latter being produced by hydrolysis of 6His-Met-ProTx-I, at the human TRPA1 channel expressed in X. laevis oocytes.

T1 sequence (O75762 whole entry): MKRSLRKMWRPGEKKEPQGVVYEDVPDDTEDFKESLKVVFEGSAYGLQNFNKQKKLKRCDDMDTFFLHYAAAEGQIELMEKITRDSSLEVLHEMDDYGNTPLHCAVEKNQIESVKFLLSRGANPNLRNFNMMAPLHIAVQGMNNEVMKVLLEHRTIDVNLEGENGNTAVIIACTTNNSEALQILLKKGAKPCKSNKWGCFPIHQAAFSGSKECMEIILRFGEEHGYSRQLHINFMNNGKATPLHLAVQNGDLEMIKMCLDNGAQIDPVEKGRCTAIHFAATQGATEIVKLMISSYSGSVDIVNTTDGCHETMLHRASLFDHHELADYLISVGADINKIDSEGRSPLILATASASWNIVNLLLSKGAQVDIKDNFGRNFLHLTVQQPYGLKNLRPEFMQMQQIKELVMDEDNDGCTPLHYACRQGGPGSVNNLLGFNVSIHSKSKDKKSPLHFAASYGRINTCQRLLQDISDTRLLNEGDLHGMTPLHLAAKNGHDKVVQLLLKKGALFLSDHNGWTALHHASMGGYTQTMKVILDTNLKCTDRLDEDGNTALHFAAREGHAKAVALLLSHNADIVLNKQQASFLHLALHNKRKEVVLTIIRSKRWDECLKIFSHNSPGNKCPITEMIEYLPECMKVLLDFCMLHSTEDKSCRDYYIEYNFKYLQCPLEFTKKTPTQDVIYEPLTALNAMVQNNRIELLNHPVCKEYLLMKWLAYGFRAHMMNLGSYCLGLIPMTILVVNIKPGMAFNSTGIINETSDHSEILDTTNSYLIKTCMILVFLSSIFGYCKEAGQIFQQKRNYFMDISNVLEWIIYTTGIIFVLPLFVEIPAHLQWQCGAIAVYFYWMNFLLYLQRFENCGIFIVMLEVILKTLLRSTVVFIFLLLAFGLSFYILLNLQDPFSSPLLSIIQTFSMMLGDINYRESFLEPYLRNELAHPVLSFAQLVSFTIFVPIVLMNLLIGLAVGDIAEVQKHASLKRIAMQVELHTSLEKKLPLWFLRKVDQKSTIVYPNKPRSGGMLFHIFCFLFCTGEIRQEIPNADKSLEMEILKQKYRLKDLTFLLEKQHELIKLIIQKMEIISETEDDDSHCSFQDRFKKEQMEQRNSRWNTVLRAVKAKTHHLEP
T2 sequence (Q6RI86 whole entry): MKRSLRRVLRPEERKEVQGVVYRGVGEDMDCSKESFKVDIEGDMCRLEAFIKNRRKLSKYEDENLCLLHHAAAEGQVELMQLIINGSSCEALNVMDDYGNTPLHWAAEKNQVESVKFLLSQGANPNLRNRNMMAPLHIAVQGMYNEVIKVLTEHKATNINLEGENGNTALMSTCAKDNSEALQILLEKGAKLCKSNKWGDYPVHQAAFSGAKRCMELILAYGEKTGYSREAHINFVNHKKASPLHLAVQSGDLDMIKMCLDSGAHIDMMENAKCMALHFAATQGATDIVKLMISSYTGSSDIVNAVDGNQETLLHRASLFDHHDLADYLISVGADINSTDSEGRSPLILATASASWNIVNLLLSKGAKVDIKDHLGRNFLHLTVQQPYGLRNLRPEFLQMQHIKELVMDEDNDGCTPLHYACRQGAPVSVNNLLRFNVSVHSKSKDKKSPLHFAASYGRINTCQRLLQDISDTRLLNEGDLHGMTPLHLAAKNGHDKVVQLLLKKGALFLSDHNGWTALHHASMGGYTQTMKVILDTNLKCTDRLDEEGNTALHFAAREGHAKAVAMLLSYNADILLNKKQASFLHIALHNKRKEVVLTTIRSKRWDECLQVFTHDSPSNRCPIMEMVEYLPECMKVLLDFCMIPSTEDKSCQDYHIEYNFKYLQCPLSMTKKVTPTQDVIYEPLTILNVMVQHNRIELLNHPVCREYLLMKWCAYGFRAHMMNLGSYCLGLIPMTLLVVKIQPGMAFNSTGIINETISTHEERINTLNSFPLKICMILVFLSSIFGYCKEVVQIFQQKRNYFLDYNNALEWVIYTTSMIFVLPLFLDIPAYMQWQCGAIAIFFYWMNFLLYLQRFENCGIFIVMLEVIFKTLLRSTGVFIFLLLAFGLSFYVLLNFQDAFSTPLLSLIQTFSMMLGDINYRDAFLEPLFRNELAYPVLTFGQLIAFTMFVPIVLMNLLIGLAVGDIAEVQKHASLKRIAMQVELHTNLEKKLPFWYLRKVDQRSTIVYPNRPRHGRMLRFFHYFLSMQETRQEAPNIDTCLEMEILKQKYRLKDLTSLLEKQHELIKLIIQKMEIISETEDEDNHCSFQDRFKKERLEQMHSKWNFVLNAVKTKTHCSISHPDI

| Molecule | IC50 (human TRPA1 [1]) [nM] | residual current (inhibited currents to) (human TRPA1 [1]) | other results |
| --- | --- | --- | --- |
| CC(C)c1ccc(NC(=O)Cn2cnc3c2c(=O)n(C)c(=O)n3C)cc1 [HC030031] | – | – | inhibition of current through TRPA1 (in words) (human TRPA1 [1]): This effect was similar to that of 50 μM HC0300301 |
| CC(C)C[C@@H]1NC(=O)[C@H](Cc2c[nH]c3ccccc23)NC(=O)[C@H](Cc2ccc(O)cc2)NC(=O)[C@H](CCCNC(=N)N)NC(=O)[C@@H](NC(=O)[C@@H](N)CCC(=O)O)CSSC[C@@H]2NC(=O)[C@@H]3CSSC[C@@H](C(=O)N[C@H](C(=O)N[C@@H](Cc4c[nH]c5ccccc45)C(=O)N[C@@H](CC(=O)O)C(=O)NCC(=O)N[C@H](C(=O)N[C@@H](Cc4ccccc4)C(=O)N[C@@H](CO)C(=O)O)[C@@H](C)O)C(C)C)NC(=O)[C@H](Cc4c[nH]c5ccccc45)NC(=O)CNC(=O)[C@H](Cc4c[nH]cn4)NC(=O)[C@H](CCCNC(=N)N)NC(=O)[C@H](CCCNC(=N)N)NC(=O)[C@H](CO)NC(=O)[C@H](CSSC[C@H](NC(=O)CNC(=O)CNC1=O)C(=O)N[C@@H](CO)C(=O)N[C@@H](C)C(=O)NCC(=O)N[C@@H](CCC(N)=O)C(=O)N[C@@H]([C@@H](C)O)C(=O)N3)NC(=O)[C@H](C(C)C)NC(=O)[C@H](CC(C)C)NC(=O)[C@H](Cc1c[nH]cn1)NC(=O)[C@H](CCCCN)NC2=O [rProTx-I] | 840 ± 190 | ~ 5% | IC50 (rat TRPA1; rTRPA1 in X. laevis oocytes, outward currents induced by 100 μM AITC, calcium-free ND-96, pH 7.4, voltage ramps, Hill equation fit, n = 3–6 oocytes, rat vs human p = 0.006 (F-test)): 250 ± 70 nM |
| CSCC[C@H](N)C(=O)N[C@@H](CCC(=O)O)C(=O)N[C@H]1CSSC[C@@H]2NC(=O)[C@@H]3CSSC[C@@H](C(=O)N[C@H](C(=O)N[C@@H](Cc4c[nH]c5ccccc45)C(=O)N[C@@H](CC(=O)O)C(=O)NCC(=O)N[C@H](C(=O)N[C@@H](Cc4ccccc4)C(=O)N[C@@H](CO)C(=O)O)[C@@H](C)O)C(C)C)NC(=O)[C@H](Cc4c[nH]c5ccccc45)NC(=O)CNC(=O)[C@H](Cc4c[nH]cn4)NC(=O)[C@H](CCCNC(=N)N)NC(=O)[C@H](CCCNC(=N)N)NC(=O)[C@H](CO)NC(=O)[C@H](CSSC[C@H](NC(=O)CNC(=O)CNC(=O)[C@H](CC(C)C)NC(=O)[C@H](Cc4c[nH]c5ccccc45)NC(=O)[C@H](Cc4ccc(O)cc4)NC(=O)[C@H](CCCNC(=N)N)NC1=O)C(=O)N[C@@H](CO)C(=O)N[C@@H](C)C(=O)NCC(=O)N[C@@H](CCC(N)=O)C(=O)N[C@@H]([C@@H](C)O)C(=O)N3)NC(=O)[C@H](C(C)C)NC(=O)[C@H](CC(C)C)NC(=O)[C@H](Cc1c[nH]cn1)NC(=O)[C@H](CCCCN)NC2=O [Met-ProTx-I] (H-MECRYWLGGCSAGQTCCKHLVCSRRHGWCVWDGTFS-OH; disulfide 3-17, 10-22, 16-29) | 8900 ± 7000 | ~ 60% | – |
| ProTx-I | – | – | inhibition of voltage-gated channels (in words) [2]: inhibits voltage-gated sodium (NaV), potassium, and calcium channels; also recorded: effectively inhibits a number of voltage-gated channels; species selectivity, rat versus human TRPA1 (in words) (rat TRPA1; rat versus human TRPA1, difference in IC50 p = 0.006 (F-test)): different activities relative to human and rat TRPA1 channels; species selectivity, human versus mouse TRPA1 (in words) (human TRPA1 [3]): higher activity at the human channel |
| CC(C)C[C@@H]1NC(=O)[C@H](Cc2c[nH]c3ccccc23)NC(=O)[C@H](Cc2ccc(O)cc2)NC(=O)[C@H](CCCNC(=N)N)NC(=O)[C@@H](NC(=O)[C@@H](N)CCC(=O)O)CSSC[C@@H]2NC(=O)[C@@H]3CSSC[C@@H](C(=O)N[C@H](C(=O)N[C@@H](Cc4c[nH]c5ccccc45)C(=O)N[C@@H](CC(=O)O)C(=O)NCC(=O)N[C@H](C(=O)N[C@@H](Cc4ccccc4)C(=O)N[C@@H](CO)C(=O)O)[C@@H](C)O)C(C)C)NC(=O)[C@H](Cc4c[nH]c5ccccc45)NC(=O)CNC(=O)[C@H](Cc4c[nH]cn4)NC(=O)[C@H](CCCNC(=N)N)NC(=O)[C@H](CCCNC(=N)N)NC(=O)[C@H](CO)NC(=O)[C@H](CSSC[C@H](NC(=O)CNC(=O)CNC1=O)C(=O)N[C@@H](CO)C(=O)N[C@@H](C)C(=O)NCC(=O)N[C@@H](CCC(N)=O)C(=O)N[C@@H]([C@@H](C)O)C(=O)N3)NC(=O)[C@H](C(C)C)NC(=O)[C@H](CC(C)C)NC(=O)[C@H](Cc1c[nH]cn1)NC(=O)[C@H](CCCCN)NC2=O [ProTx-I (Smartox)] | 410 ± 160 | ~ 5% | – |
